Source: patent US7132546B2, “Aniline derivatives or salts thereof and cytokine production inhibitors containing the same” (Ishihara Sangyo Kaisha, Ltd., priority 2000, dated 2006)

Key:
[1] = system: interleukin 5 (IL-5) production; assay: Cytokine production inhibitory effect: IL-5 production by murine spleen cells treated with anti-mouse CD3 antibody and IL-2 (ELISA); format: cell-based, Balb/c mice; settings: test compound 100 ppm, anti-CD3 antibody + IL-2, 40 to 48 hours, read-out: IL-5 production inhibitory ratio (%)
Description: (§1) Murine spleen cells were treated with anti-mouse CD3 antibody and IL-2 to induce cytokine production. The test compounds were added to the cytokine production system to evaluate their inhibitory effect. Namely, anti-mouse CD3 antibody adjusted to from 10 to 20 μg/ml with borate buffered physiological saline (pH 8.5) was pipetted into a 96-well cell culture plate in an amount of 50 μl/well and left to stand at 4° C. for 18 hours. The unreacted solution was removed, washing with Hank's buffer solution was carried out once, and IL-2 adjusted to 10 ng/ml with a RPMI liquid containing 10% fetal bovine serum (FCS) was pipetted in an amount of 50 μl/well. For the negative control group, a solution alone without anti-CD3 antibody nor IL-2 was applied. Then, the diluted solution of each of the test compounds (concentration: 100 ppm unless otherwise specified) was pipetted in an amount of 50 μl/well, and a cell suspension of 1×10^7 cells/ml, prepared from spleen of Balb/c mice (female, 7 to 10 week old) was pipetted thereinto in an amount of 100 μl/well. After cultivation in an incubator (37° C., 5% carbon dioxide gas) for from 40 to 48 hours, the culture supernatant was recovered to measure the cytokine production amount by ELISA method.
(§2) With respect to interleukin 5 (IL-5) as a typical Th2 type cytokine and interferon γ (IFN-γ) as a typical Th1 type cytokine, measurements were carried out by the following methods, respectively. Namely, quantitative determination of IL-5 was carried out by the following ELISA method. First, rat anti-mouse IL-5 antibody (Endogen Code No. MM-550C) as a primary antibody was diluted with carbonate buffer solution (pH 9.5) to 1 μg/ml, and spread in a 96 well plate (IWAKI, Code No. 3860-096) in an amount of 50 μl/well for coating at 4° C. overnight (16 to 24 hours). Then, the plate was subjected to blocking at 37° C. for 2 hours by phosphate buffered physiological saline containing 10% FCS (pH 7.2) (blocking buffer solution) (250 μl/well). The plate was washed with PBS (washing buffer) containing 0.05% Tween 20 (Nacalai Tesque, Code No. 281-51) four times, and a diluted liquid of the culture supernatant was spread in an amount of 50 μl/well, followed by incubation at room temperature for 1 hour. For preparation of a standard line, recombinant mouse IL-5 (R&D systems, Code No. 405-ML) was employed. The plate was washed with a washing buffer four times, and biotin-labeled rat anti-mouse IL-5 antibody (Pharmingen, Code No. 18062D) as a secondary antibody diluted to 0.5 μg/ml with a blocking buffer containing 0.05% Tween 20 was added thereto (50 μl/well), followed by incubation at room temperature for 1 hour. The plate was washed with a washing buffer four times, strept avidin-labeled peroxidase (ProZyme, Code No. CJ30H001) diluted 800 times with a blocking buffer containing 0.05% Tween 20 was added thereto (50 μl/well), followed by reaction at room temperature for 15 minutes. The plate was washed with a washing buffer four times, and a […] substrate solution (SIGMA, Code No. T-8665) was added thereto in an amount of 100 μl/well for color developing for from 10 to 20 minutes. A 1M sulfuric acid solution was added thereto in an amount of 100 μl/well to terminate the reaction, and absorption (wavelength 450 nm) was measured by means of micro plate reader (SPECTRA max, Wako Pure Chemicals Industries, Ltd.). Quantitative determination of IFN-γ was carried out in the same manner as the measurement of IL-5, employing rat anti-mouse IFN-γ antibody (Pharmingen, Code No. 18181D) and biotin labeled rat anti-mouse IFN-γ antibody (Pharmingen, Code NO. 18112D), as a primary antibody and a secondary antibody, respectively. For preparation of a standard line, recombinant mouse IFN-γ (GENZYME, Code No. 3485) was employed. The experiment was carried out in duplicate, and the average of the cytokine production amount was obtained. […]

[2] = system: interferon γ (IFN-γ) production; assay: Cytokine production inhibitory effect: IFN-γ production by murine spleen cells treated with anti-mouse CD3 antibody and IL-2 (ELISA); format: cell-based, Balb/c mice; settings: test compound 100 ppm, anti-CD3 antibody + IL-2, 40 to 48 hours, read-out: IFN-γ production inhibitory ratio (%)
Description: as §1, §2

| Structure (SMILES) | melting point | inhibition at 100 ppm [1] | inhibition at 100 ppm [2] |
| --- | --- | --- | --- |
| Cc1cc(C23CC4CC(CC(C4)C2)C3)ccc1NC(=O)c1cccc(Cl)c1[N+](=O)[O-] [compound 58] | 256 °C | 97% | 96% |
| O=C(Nc1ccc(Sc2ncc(C(F)(F)F)cc2Cl)cc1)c1cc([N+](=O)[O-])ccc1Cl [compound 59] | 174 °C | 100% | 100% |
| Cc1cc(C23CC4CC(CC(C4)C2)C3)ccc1NC(=O)c1cccc([N+](=O)[O-])c1Cl [compound 60] | 222 °C | 96% | 93% |
| Cc1cc(C23CC4CC(CC(C4)C2)C3)ccc1NC(=O)c1ccccc1 [compound 61] | 198 °C | 79% | 89% |
| Cc1cc(C23CC4CC(CC(C4)C2)C3)ccc1NC(=O)c1ccc(Cl)c([N+](=O)[O-])c1 [compound 62] | 111 °C | 100% | 100% |
| O=C(Nc1ccc(Oc2ccccn2)cc1)c1cc([N+](=O)[O-])ccc1Cl [compound 63] | 198 °C | 100% | 100% |
| O=C(Nc1ccc(Oc2ncc(C(F)(F)F)cc2Cl)cc1)c1cc([N+](=O)[O-])ccc1Cl [compound 64] | 203 °C | 98% | 99% |
| O=C(Nc1ccc(N2CCOCC2)cc1)c1cc([N+](=O)[O-])ccc1Cl [compound 66] | 195 °C | 95% | 91% |
| O=C(Nc1ccc(/N=N/c2ccccc2)cc1)c1cc([N+](=O)[O-])ccc1Cl [compound 67] | 187 °C | 99% | 100% |
| CSc1ccc(Cl)c(C(=O)Nc2ccc(C34CC5CC(CC(C5)C3)C4)cc2C)c1 [compound 68] | 65 °C | 92% | 99% |
| O=C(Nc1ccc(Sc2ccccc2)cc1)c1cc([N+](=O)[O-])ccc1Cl [compound 69] | 180 to 183 °C | 100% | 100% |
| Cc1cc(C23CC4CC(CC(C4)C2)C3)ccc1NC(=O)c1cc(C(F)(F)F)ccc1Cl [compound 70] | 69 °C | 98% | 99% |
| Cc1ccc(NC(=O)c2ccc([N+](=O)[O-])cc2Cl)c(C)c1 [compound 73] | 181 to 183 °C | 64% | 28% |
| Cc1cc(C23CC4CC(CC(C4)C2)C3)ccc1NC(=O)c1ccc([N+](=O)[O-])cc1 [compound 74] | 289 to 290 °C | 43% | 10% |
| Cc1cc(C23CC4CC(CC(C4)C2)C3)ccc1NC(=O)c1cc(S(C)(=O)=O)ccc1Cl [compound 75] | 96 to 100 °C | 100% | 100% |
| Cc1cc(C23CC4CC(CC(C4)C2)C3)ccc1NC(=O)c1cc(C#N)ccc1Cl [compound 76] | 184 to 187 °C | 96% | 96% |
| O=C(Nc1ccc(OCc2ccccc2)cc1)c1cc([N+](=O)[O-])ccc1Cl [compound 77] | 176 to 178 °C | 74% | 50% |
| O=C(Nc1ccc(SCc2ccccc2)cc1)c1cc([N+](=O)[O-])ccc1Cl [compound 78] | 156 to 157 °C | 78% | 91% |

| Structure (SMILES) | melting point | inhibition at 100 ppm [1] | inhibition at 100 ppm [2] |
| --- | --- | --- | --- |
| O=C(Nc1ccc(CSc2ccccc2)cc1)c1cc([N+](=O)[O-])ccc1Cl [compound 79] | 176 to 180 °C | 62% | 90% |
| O=[N+]([O-])c1ccc(Cl)c(S(=O)(=O)Nc2ccc(Oc3ncc(C(F)(F)F)cc3Cl)cc2)c1 [compound 80] | 171 °C | 100% | 100% |
| O=C(Nc1ccc(CSc2ncc(C(F)(F)F)cc2Cl)cc1)c1cc([N+](=O)[O-])ccc1Cl [compound 82] | 207 to 208 °C | 90% | 99% |
| O=C(Nc1ccc(-c2ccccc2)cc1)c1cc([N+](=O)[O-])ccc1Cl [compound 83] | 203 to 206 °C | 90% | 76% |
| N#Cc1ccc(Cl)c(C(=O)Nc2ccc(Oc3ccccc3)cc2)c1 [compound 85] | 143 °C | 91% | 86% |
| N#Cc1ccc(Cl)c(C(=O)Nc2ccc(Oc3ncc(C(F)(F)F)cc3Cl)cc2)c1 [compound 86] | 209 to 212 °C | 87% | 29% |
| N#Cc1ccc(Cl)c(C(=O)Nc2ccc(Sc3ncc(C(F)(F)F)cc3Cl)cc2)c1 [compound 87] | 229 to 231 °C | 100% | 100% |
| CS(=O)(=O)c1ccc(Cl)c(C(=O)Nc2ccc(Oc3ncc(C(F)(F)F)cc3Cl)cc2)c1 [compound 88] | 221 °C | 72% | 17% |
| O=C(Nc1ccc(Oc2ccc(C(F)(F)F)cc2Cl)cc1)c1cc([N+](=O)[O-])ccc1Cl [compound 89] | 168 °C | 87% | 99% |
| O=[N+]([O-])c1ccc(Cl)c(S(=O)(=O)Nc2ccc(Sc3ncc(C(F)(F)F)cc3Cl)cc2)c1 [compound 90] | 224 to 226 °C | 100% | 100% |
| Cc1cc(Oc2ncc(C(F)(F)F)cc2Cl)ccc1NC(=O)c1cc([N+](=O)[O-])ccc1Cl [compound 91] | 219 to 221 °C | 53% | 1% |
| O=C(Nc1ccc(CO)cc1)c1cc([N+](=O)[O-])ccc1Cl [compound 92] | 201 to 204 °C | 99% | 100% |
| O=C(Nc1ccc(C23CC4CC(CC(C4)C2)C3)cc1)c1cc([N+](=O)[O-])ccc1F [compound 93] | 224 to 228 °C | 100% | 100% |
| O=C(Nc1ccc(C23CC4CC(CC(C4)C2)C3)cc1)c1cc([N+](=O)[O-])ccc1Br [compound 94] | 273 to 275 °C | 85% | 53% |
| O=C(Nc1ccc(Oc2ccc(C(F)(F)F)cc2Cl)cc1)c1cc([N+](=O)[O-])ccc1Br [compound 96] | 167 to 172 °C | 100% | 100% |
| O=C(Nc1ccc(CCOc2ncc(C(F)(F)F)cc2Cl)cc1)c1cc([N+](=O)[O-])ccc1Cl [compound 97] | 131 to 134 °C | 77% | 84% |
| O=C(Nc1ccc(Oc2ncc(C(F)(F)F)cc2Cl)cc1)c1cc([N+](=O)[O-])ccc1F [compound 98] | 168 to 170 °C | 96% | 99% |
